Results on one compound are retold here after publication PMC5344682, “Tuned SMC Arms Drive Chromosomal Loading of Prokaryotic Condensin” (Molecular Cell, 2017).

Holding throughout (assay): PK/LDH coupled ATPase assay, NADH absorbance, Hill fit
Common to all, as to assay type: biochemical

In test [1] the target is T1, Smc (Bs Smc) (Bacillus subtilis, UniProt P51834, DEL439-486/DEL685-732).
T1 construct: full length 1186 residues, untagged, E. coli BL21-Gold(DE3), homodimer; plasmid pSG1497 pET-22b Smc; no ScpAB or DNA
T1 sequence (P51834 other isoform, or with tags, fused parts or gaps DEL439-486/DEL685-732): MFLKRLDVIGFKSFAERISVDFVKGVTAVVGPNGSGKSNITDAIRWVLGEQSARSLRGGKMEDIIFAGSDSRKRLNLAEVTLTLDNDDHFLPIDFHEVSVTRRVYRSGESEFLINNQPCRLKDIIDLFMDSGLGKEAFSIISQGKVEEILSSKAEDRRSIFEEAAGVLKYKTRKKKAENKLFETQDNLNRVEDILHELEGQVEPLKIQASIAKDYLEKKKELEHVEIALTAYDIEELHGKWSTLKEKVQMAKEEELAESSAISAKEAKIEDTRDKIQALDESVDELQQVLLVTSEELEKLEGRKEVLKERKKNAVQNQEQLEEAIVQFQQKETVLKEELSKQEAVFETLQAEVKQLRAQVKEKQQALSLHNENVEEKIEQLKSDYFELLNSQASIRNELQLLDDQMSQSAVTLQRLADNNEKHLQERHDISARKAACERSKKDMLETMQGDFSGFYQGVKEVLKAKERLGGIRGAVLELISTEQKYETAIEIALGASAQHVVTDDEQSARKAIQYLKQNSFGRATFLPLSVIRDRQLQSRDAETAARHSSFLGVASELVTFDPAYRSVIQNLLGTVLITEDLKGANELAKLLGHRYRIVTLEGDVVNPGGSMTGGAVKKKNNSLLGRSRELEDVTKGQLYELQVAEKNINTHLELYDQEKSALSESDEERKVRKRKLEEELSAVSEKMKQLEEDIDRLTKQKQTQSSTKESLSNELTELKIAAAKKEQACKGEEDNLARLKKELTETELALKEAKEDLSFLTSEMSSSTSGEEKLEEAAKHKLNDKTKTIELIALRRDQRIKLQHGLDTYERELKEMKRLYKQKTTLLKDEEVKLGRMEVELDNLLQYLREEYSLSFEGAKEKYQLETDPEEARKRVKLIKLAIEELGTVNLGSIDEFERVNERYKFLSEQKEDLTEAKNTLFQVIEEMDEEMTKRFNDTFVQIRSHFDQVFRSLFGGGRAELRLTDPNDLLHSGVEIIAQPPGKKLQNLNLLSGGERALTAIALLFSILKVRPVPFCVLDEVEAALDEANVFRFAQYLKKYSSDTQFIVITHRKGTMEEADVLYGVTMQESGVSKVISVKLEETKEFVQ
To be noted: 50 mM HEPES-KOH pH 7.5, 50 mM NaCl, 2 mM MgCl2, 25 C, 0.3 uM protein, ATP varied; Mini-Smc(1-438, 487-684, 733-1186), construct taken from plasmid pSG2914.

For test [2], the target named is T2, Smc (Bs Smc) (Bacillus subtilis, UniProt P51834, DEL400-486/DEL685-771).
T2 construct: full length 1186 residues, untagged, E. coli BL21-Gold(DE3), homodimer; plasmid pSG1497 pET-22b Smc; no ScpAB or DNA
As to conditions: 50 mM HEPES-KOH pH 7.5, 50 mM NaCl, 2 mM MgCl2, 25 C, 0.3 uM protein, ATP varied; Mini-Smc(1-399, 487-684, 772-1186), construct taken from plasmid pSG2916.

Test [3] concerns the target T3, Smc (Bs Smc) (Bacillus subtilis, UniProt P51834).
T3 construct: full length 1186 residues, untagged, E. coli BL21-Gold(DE3), homodimer; plasmid pSG1497 pET-22b Smc; no ScpAB or DNA
To be noted: 50 mM HEPES-KOH pH 7.5, 50 mM NaCl, 2 mM MgCl2, 25 C, 0.3 uM protein, ATP varied; peptide insertion, plasmid pSG2966; matching strain printed as smc(1-479)-SGPGGGGGRQYQA-smc(480-1186).

Test [4] addresses T4, Smc (Bs Smc) (Bacillus subtilis, UniProt P51834, DEL436-486/DEL685-735).
T4 construct: full length 1186 residues, untagged, E. coli BL21-Gold(DE3), homodimer; plasmid pSG1497 pET-22b Smc; no ScpAB or DNA
To be noted: 50 mM HEPES-KOH pH 7.5, 50 mM NaCl, 2 mM MgCl2, 25 C, 0.3 uM protein, ATP varied; Mini-Smc(1-435, 487-684, 736-1186), construct taken from plasmid pSG2915.

For test [5], the target named is T3, Smc (Bs Smc). To be noted: 50 mM HEPES-KOH pH 7.5, 50 mM NaCl, 2 mM MgCl2, 25 C, 0.3 uM protein, ATP varied; peptide insertion, plasmid pSG2965; matching strain printed as smc(1-394)-SGPGGGGGRQQAS-smc(395-1186).
In test [6] the target is T5, Smc (Bs Smc) (Bacillus subtilis, UniProt P51834, DEL396-486/DEL685-775).
T5 construct: full length 1186 residues, untagged, E. coli BL21-Gold(DE3), homodimer; plasmid pSG1497 pET-22b Smc; no ScpAB or DNA
T5 sequence (P51834 other isoform, or with tags, fused parts or gaps DEL396-486/DEL685-775): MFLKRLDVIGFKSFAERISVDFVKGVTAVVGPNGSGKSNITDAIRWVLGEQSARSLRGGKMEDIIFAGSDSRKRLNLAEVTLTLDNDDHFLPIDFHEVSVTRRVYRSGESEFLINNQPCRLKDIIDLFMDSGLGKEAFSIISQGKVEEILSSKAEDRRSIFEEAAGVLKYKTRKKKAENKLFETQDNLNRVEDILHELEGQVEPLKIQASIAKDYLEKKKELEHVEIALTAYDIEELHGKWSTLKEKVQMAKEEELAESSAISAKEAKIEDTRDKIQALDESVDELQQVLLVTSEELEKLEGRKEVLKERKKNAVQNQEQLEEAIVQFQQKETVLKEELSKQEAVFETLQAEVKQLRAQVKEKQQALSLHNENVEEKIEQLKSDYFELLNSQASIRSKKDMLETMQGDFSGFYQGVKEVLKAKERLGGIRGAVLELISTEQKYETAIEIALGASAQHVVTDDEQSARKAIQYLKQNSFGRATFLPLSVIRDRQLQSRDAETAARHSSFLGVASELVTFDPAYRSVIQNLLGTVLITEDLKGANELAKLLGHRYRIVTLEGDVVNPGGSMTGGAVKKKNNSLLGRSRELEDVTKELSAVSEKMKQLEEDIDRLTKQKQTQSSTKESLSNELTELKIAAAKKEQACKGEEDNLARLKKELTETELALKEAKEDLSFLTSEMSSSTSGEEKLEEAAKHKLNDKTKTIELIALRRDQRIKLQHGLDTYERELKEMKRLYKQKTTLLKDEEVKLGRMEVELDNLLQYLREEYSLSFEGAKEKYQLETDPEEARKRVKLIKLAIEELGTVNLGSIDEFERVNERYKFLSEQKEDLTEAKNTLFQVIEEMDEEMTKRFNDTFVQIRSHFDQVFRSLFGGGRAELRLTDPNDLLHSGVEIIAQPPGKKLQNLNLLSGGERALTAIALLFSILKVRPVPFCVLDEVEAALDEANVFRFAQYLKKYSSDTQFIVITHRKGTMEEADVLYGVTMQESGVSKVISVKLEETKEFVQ
As to conditions: 50 mM HEPES-KOH pH 7.5, 50 mM NaCl, 2 mM MgCl2, 25 C, 0.3 uM protein, ATP varied; Mini-Smc(1-395, 487-684, 776-1186), construct taken from plasmid pSG2917.

Molecules are shown by their SMILES.

T3 sequence (P51834 whole entry): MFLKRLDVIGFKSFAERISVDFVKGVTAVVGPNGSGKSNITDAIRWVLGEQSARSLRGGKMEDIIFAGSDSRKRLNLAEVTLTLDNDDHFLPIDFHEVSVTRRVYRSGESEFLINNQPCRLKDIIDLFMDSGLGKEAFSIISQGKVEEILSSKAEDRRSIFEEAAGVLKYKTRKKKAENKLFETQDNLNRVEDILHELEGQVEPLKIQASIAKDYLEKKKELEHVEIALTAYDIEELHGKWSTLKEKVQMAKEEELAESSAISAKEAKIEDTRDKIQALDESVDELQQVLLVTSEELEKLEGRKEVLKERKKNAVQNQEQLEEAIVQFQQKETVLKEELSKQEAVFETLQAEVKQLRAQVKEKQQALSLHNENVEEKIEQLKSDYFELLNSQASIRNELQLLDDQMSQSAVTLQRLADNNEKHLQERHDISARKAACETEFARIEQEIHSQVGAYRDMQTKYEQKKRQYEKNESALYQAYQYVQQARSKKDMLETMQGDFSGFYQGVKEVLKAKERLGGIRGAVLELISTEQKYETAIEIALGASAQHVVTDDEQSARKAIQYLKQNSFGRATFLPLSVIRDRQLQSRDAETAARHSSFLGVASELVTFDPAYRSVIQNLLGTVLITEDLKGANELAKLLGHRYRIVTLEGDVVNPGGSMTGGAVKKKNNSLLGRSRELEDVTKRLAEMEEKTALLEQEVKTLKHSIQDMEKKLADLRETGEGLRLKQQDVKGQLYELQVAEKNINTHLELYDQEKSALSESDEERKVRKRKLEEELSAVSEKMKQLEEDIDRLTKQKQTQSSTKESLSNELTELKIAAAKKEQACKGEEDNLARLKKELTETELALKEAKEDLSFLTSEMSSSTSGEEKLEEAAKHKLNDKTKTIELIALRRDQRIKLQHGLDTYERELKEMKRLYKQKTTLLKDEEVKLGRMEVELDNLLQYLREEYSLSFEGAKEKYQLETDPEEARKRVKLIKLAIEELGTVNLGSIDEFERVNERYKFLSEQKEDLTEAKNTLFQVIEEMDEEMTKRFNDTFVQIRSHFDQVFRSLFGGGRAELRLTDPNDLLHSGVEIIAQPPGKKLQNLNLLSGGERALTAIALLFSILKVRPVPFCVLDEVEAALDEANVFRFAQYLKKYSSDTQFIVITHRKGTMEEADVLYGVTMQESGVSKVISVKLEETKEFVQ
T4 sequence (P51834 other isoform, or with tags, fused parts or gaps DEL436-486/DEL685-735): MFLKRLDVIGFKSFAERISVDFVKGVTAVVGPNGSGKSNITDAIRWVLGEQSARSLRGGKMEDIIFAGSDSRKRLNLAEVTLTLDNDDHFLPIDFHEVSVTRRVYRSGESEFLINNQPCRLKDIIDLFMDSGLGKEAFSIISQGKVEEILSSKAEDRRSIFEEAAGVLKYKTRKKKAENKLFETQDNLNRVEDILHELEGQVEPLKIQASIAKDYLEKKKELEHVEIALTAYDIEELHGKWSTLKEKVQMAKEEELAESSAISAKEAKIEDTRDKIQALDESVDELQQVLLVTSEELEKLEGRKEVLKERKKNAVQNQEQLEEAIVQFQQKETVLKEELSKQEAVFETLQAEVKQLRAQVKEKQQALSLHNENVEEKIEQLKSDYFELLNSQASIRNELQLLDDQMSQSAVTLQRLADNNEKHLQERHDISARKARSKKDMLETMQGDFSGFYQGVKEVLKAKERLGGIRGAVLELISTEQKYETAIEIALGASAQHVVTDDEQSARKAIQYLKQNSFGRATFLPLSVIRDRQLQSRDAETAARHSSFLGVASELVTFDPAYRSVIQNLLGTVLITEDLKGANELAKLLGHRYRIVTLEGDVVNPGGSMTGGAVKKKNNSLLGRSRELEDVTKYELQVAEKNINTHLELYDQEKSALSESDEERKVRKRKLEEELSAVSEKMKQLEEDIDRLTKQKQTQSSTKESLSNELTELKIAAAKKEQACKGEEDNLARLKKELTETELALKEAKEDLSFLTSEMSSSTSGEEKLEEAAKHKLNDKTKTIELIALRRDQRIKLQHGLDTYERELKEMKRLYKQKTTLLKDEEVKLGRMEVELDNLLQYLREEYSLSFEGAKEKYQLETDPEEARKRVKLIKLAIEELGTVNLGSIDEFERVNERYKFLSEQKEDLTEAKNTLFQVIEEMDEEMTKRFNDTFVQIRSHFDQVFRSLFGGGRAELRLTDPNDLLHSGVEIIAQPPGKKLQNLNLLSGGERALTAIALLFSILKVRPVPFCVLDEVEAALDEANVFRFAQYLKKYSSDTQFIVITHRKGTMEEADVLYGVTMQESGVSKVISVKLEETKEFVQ

As for `Nc1ncnc2c1ncn2[C@@H]1O[C@H](COP(=O)(O)OP(=O)(O)OP(=O)(O)O)[C@@H](O)[C@H]1O` [ATP], the K0.5 entry was “We then purified Mini-Smc proteins to measure their ability to hydrolyze ATP in vitro” in test [1]; “We then purified Mini-Smc proteins to measure their ability to hydrolyze ATP in vitro” in test [2]; “Smc proteins with peptide insertions are functional ATPases” in test [3]; “We then purified Mini-Smc proteins to measure their ability to hydrolyze ATP in vitro” in test [4]; “Smc proteins with peptide insertions are functional ATPases” in test [5]; “We then purified Mini-Smc proteins to measure their ability to hydrolyze ATP in vitro” in test [6].
